{
  "source": "patent US20120190752A1",
  "about": "“EXO-S-MECAMYLAMINE METHOD, USE, AND COMPOUND FOR TREATMENT” (Targacept Inc., priority 2009, published 2012)",
  "system": "subjects with major depressive disorder (MDD) who were inadequate responders to citalopram",
  "experiment": "SGI-Cog (Subject Global Impression-Cognition) with Attention, Memory, Speed subscales, Phase 2b add-on trial",
  "type": "in vivo, human",
  "design": "SGI-Cognition Adj. Mean / SGI-Attention Adj. Mean / SGI-Memory Adj. Mean / SGI-Speed Adj. Mean / SGI-Cog TOTAL Adjusted Mean / SGI-Cog MEMORY Adjusted Mean / SGI-Cog ATTENTION Adjusted Mean / SGI-Cog SPEED OF THINKING Adjusted Mean: scale not given here",
  "conditions": "for SGI-Cog ATTENTION Adjusted Mean / SGI-Cog ATTENTION Mean Difference between TC-5214 and Placebo / SGI-Cog MEMORY Adjusted Mean / SGI-Cog MEMORY Mean Difference between TC-5214 and Placebo / SGI-Cog SPEED OF THINKING Adjusted Mean / SGI-Cog SPEED OF THINKING Mean Difference between TC-5214 and Placebo / SGI-Cog TOTAL Adjusted Mean / SGI-Cog TOTAL Mean Difference between TC-5214 and Placebo: Double Blind Week 16; for SGI-Attention Adj. Mean / SGI-Memory Adj. Mean / SGI-Speed Adj. Mean / SGI-Cognition Adj. Mean / SGI-Attention Difference vs placebo / SGI-Cognition Difference vs placebo / SGI-Memory Difference vs placebo / SGI-Speed Difference vs placebo: ITT; for SGI-Attention Adj. Mean / SGI-Memory Adj. Mean / SGI-Speed Adj. Mean / SGI-Cognition Adj. Mean: assessed at endpoint (Week 16), patient rated change from baseline; for SGI-Cognition Adj. Mean: sum of 3 items; for SGI-Attention Difference vs placebo / SGI-Cognition Difference vs placebo / SGI-Memory Difference vs placebo / SGI-Speed Difference vs placebo: endpoint (Week 16)",
  "procedure": "In more detail, a multi-center double-blind, randomized, placebo-controlled, parallel group, flexible dose titration study of TC-5214 as adjunctive therapy in subjects with major depressive disorder (MDD) who were inadequate responders to citalopram was conducted in centers in the US and India. The study consisted of a screening period, baseline/washout period, open-label phase, double-blind phase, and a follow-up visit. Subject participation in the study could continue for up to 16 weeks of treatment. Following a washout period of up to 28 days for other antidepressants, subjects with MDD and a MADRS total score >/=28 and a Clinical Global Impression-Severity (CGI-S) score >/=4 were enrolled on Day 1 into an open-label citalopram-only phase of the study. This phase lasted 8 weeks, with citalopram (CIT) dose increased from a once-daily dose of 20 mg (Day 1 through Week 4) to 40 mg (Week 4 through Week 8). A total of 579 subjects entered the open-label citalopram phase. At Week 8, subjects who tolerated 40 mg CIT, but whose MADRS score was reduced <50% from baseline and no lower than 17, and CGI-S≧4, were considered inadequate responders. These subjects (n=270) were randomized in a double-blind fashion to receive either placebo or TC-5214-23 as add-on therapy to continued CIT. The double-blind phase of the study also lasted 8 weeks (Week 8 to Week 16). Study drug, TC-5214-23 or placebo, was started at 2 mg daily (1 mg twice per day [BID] dosing), added on to continuing CIT (40 mg PO qd). After 2 weeks of treatment, the dose of TC-5214 could be increased to 4 mg (2 mg BID) or continued unchanged, with up-titration based upon good tolerability and inadequate therapeutic response. After a further 2 weeks, the dose of TC-5214 could be increased again to 8 mg (4 mg BID) if judged appropriate by the investigator, based upon good tolerability and inadequate therapeutic response. At any time during the double-blind phase of the study, placebo or TC-5214-23 could be reduced to the previous dose level following the emergence of unacceptable adverse events (AEs). […] At this follow-up, any signs or symptoms of relapse were evaluated. If a subject was prematurely discontinued from the study between Week 8 and Week 16 for any reason, the investigator was to make every effort to perform all evaluations as per protocol, assuming the subject had reached the end of the double-blind add-on treatment phase. These evaluations were to be made as soon as possible and within 2 weeks of discontinuation. […] There was no meaningful difference in results as a function of age, gender, site, or smoking status. [table] With regard to efficacy endpoints, the following tables present efficacy used in the ITT (Intent-to-Treat) and PP (Per Protocol) populations unless otherwise specific. The primary inference was based upon Week 16 visit using the ITT population. Change from baseline was obtained by subtracting the baseline values from the individual on-treatment values. Change from Week 16 was obtained by subtracting the Week 16 values from the individual follow-up visit (Week 18/19) values. If either the baseline or Week 16 or on-treatment or follow-up value was missing, the change from baseline or Week 16 value was also set to missing. To account for missing data, the last observation carry forward (LOCF) method was used for the ITT and PP populations. Thus, the last available on-therapy observation for a subject, including the observation at premature discontinuation, was used to estimate subsequent missing data points. For efficacy, baseline data were collected at Week 8 in the double-blind augmentation phase electronic case report form pages. With regard to SGI-Cog, the endpoint was the Week 16 results for the SGI-Cog. The Week 16 SGI-Cog composite score and each scale were analyzed at Week 16 using ANOVA. […]",
  "data": [
    {"molecule": "CNC1(C)C2CCC(C2)C1(C)C", "note": "(stereo in doubt) [TC-5214, (S)—N,2,3,3-tetramethylnorbornan-2-amine]", "values": [
      {"measurement": "SGI-Cog ATTENTION Adjusted Mean", "setting": "ITT Population", "value": 2.13},
      {"measurement": "SGI-Cog ATTENTION Mean Difference between TC-5214 and Placebo", "setting": "ITT Population", "value": 0.72},
      {"measurement": "SGI-Cog MEMORY Adjusted Mean", "setting": "ITT Population", "value": 2.23},
      {"measurement": "SGI-Cog MEMORY Mean Difference between TC-5214 and Placebo", "setting": "ITT Population", "value": 0.67},
      {"measurement": "SGI-Cog SPEED OF THINKING Adjusted Mean", "setting": "ITT Population", "value": 2.16},
      {"measurement": "SGI-Cog SPEED OF THINKING Mean Difference between TC-5214 and Placebo", "setting": "ITT Population", "value": 0.76},
      {"measurement": "SGI-Cog TOTAL Adjusted Mean", "setting": "ITT Population", "value": 6.52},
      {"measurement": "SGI-Cog TOTAL Mean Difference between TC-5214 and Placebo", "setting": "ITT Population", "value": 2.15},
      {"measurement": "SGI-Attention Adj. Mean", "value": "2.13 (0.09)"},
      {"measurement": "SGI-Memory Adj. Mean", "value": "2.23 (0.09)"},
      {"measurement": "SGI-Speed Adj. Mean", "value": "2.16 (0.09)"},
      {"measurement": "SGI-Attention Adj. Mean", "setting": "listed as TC-5214 + CIT", "value": 2.13},
      {"measurement": "SGI-Memory Adj. Mean", "setting": "listed as TC-5214 + CIT", "value": 2.23},
      {"measurement": "SGI-Speed Adj. Mean", "setting": "listed as TC-5214 + CIT", "value": 2.16},
      {"measurement": "SGI-Cognition Adj. Mean", "value": "6.52 (0.27)"},
      {"measurement": "SGI-Cognition Adj. Mean", "setting": "listed as TC-5214 + CIT", "value": 6.52},
      {"measurement": "SGI-Attention Difference vs placebo", "value": "−0.72 (−0.96, −0.47)"},
      {"measurement": "SGI-Cognition Difference vs placebo", "value": "−2.15 (−2.89, −1.41)"},
      {"measurement": "SGI-Memory Difference vs placebo", "value": "−0.67 (−0.93, −0.42)"},
      {"measurement": "SGI-Speed Difference vs placebo", "value": "−0.76 (−1.02, −0.50)"},
      {"measurement": "SGI-Attention Difference vs placebo", "setting": "listed as TC-5214 + CIT", "value": "−0.72"},
      {"measurement": "SGI-Cognition Difference vs placebo", "setting": "listed as TC-5214 + CIT", "value": "−2.15"},
      {"measurement": "SGI-Memory Difference vs placebo", "setting": "listed as TC-5214 + CIT", "value": "−0.67"},
      {"measurement": "SGI-Speed Difference vs placebo", "setting": "listed as TC-5214 + CIT", "value": "−0.76"},
      {"measurement": "SGI-Cog ATTENTION Adjusted Mean", "setting": "PP Population", "value": 2.03},
      {"measurement": "SGI-Cog ATTENTION Mean Difference between TC-5214 and Placebo", "setting": "PP Population", "value": 0.76},
      {"measurement": "SGI-Cog MEMORY Adjusted Mean", "setting": "PP Population", "value": 2.15},
      {"measurement": "SGI-Cog MEMORY Mean Difference between TC-5214 and Placebo", "setting": "PP Population", "value": 0.68},
      {"measurement": "SGI-Cog SPEED OF THINKING Adjusted Mean", "setting": "PP Population", "value": 2.05},
      {"measurement": "SGI-Cog SPEED OF THINKING Mean Difference between TC-5214 and Placebo", "setting": "PP Population", "value": 0.81},
      {"measurement": "SGI-Cog TOTAL Adjusted Mean", "setting": "PP Population", "value": 6.23},
      {"measurement": "SGI-Cog TOTAL Mean Difference between TC-5214 and Placebo", "setting": "PP Population", "value": 2.25},
      {"measurement": "Total SGI-Cog scores compared with placebo", "setting": "Week 16, ITT and PP populations, result in words", "value": "statistically significant lower"}
    ]}
  ]
}
